Data from ChEMBL document CHEMBL3232840, “Anti-proliferative activity of 2,6-dichloro-9- or 7-(ethoxycarbonylmethyl)-9H- or 7H-purines against several human solid tumour cell lines” (Eur J Med Chem, 2014).

Experiments:
MCF7 [1] = test: Antiproliferative activity against human MCF7 cells after 3 days by sulforhodamine-B colorimetric assay; type: functional, cell-based; conditions: MCF7, 72 h
HCT-116 [2] = test: Antiproliferative activity against human HCT116 cells after 3 days by sulforhodamine-B colorimetric assay; type: functional, cell-based; conditions: HCT-116, 72 h
A-375 [3] = test: Antiproliferative activity against human A375 cells after 3 days by sulforhodamine-B colorimetric assay; type: functional, cell-based; conditions: A-375, 72 h
[4] = Antiproliferative activity against human G361 cells after 3 days by sulforhodamine-B colorimetric assay; type: functional, cell-based; conditions: G-361, 72 h
MCF7 [5] = test: Cell cycle arrest human MCF7 cells assessed as accumulation at G0/G1 phase at IC50 after 24 hrs by flow cytometry (reference value: 34.58 +/- 0.09 % ); type: functional
MCF7 [6] = test: Cell cycle arrest human MCF7 cells assessed as accumulation at S phase at IC50 after 24 hrs by flow cytometry (reference value: 14.50 +/- 1.06 % ); type: functional
MCF7 [7] = test: Cell cycle arrest human MCF7 cells assessed as accumulation at G2/M phase at IC50 after 24 hrs by flow cytometry (reference value: 50.91 +/- 1.15 % ); type: functional
HCT-116 [8] = test: Cell cycle arrest human HCT116 cells assessed as accumulation at G0/G1 phase at IC50 after 24 hrs by flow cytometry (reference value: 44.70 +/- 0.38 % ); type: functional
HCT-116 [9] = test: Cell cycle arrest human HCT116 cells assessed as accumulation at S phase at IC50 after 24 hrs by flow cytometry (reference value: 38.26 +/- 1.40 % ); type: functional
HCT-116 [10] = test: Cell cycle arrest human HCT116 cells assessed as accumulation at G2/M phase at IC50 after 24 hrs by flow cytometry (reference value: 17.02 +/- 1.40 % ); type: functional
A-375 [11] = test: Cell cycle arrest human A375 cells assessed as accumulation at G0/G1 phase at IC50 after 24 hrs by flow cytometry (reference value: 57.97 +/- 0.93 % ); type: functional
A-375 [12] = test: Cell cycle arrest human A375 cells assessed as accumulation at S phase at IC50 after 24 hrs by flow cytometry (reference value: 29.60 +/- 0.78 % ); type: functional
A-375 [13] = test: Cell cycle arrest human A375 cells assessed as accumulation at G2/M phase at IC50 after 24 hrs by flow cytometry (reference value: 12.42 +/- 0.70 % ); type: functional
MCF7 [14] = test: Induction of apoptosis in human MCF7 cells at IC50 after 24 hrs by annexin V-FITC/PI-based flow cytometry (reference value: 10.80 +/- 0.85 % ); type: functional
HCT-116 [15] = test: Induction of apoptosis in human HCT116 cells at IC50 after 24 hrs by annexin V-FITC/PI-based flow cytometry (reference value: 7.27 +/- 1.57 % ); type: functional
A-375 [16] = test: Induction of apoptosis in human A375 cells at IC50 after 24 hrs by annexin V-FITC/PI-based flow cytometry (reference value: 6.83 +/- 0.40 % ); type: functional

SMILES | IC50 (MCF7 [1]) [µM] | IC50 (HCT-116 [2]) [µM] | IC50 (A-375 [3]) [µM] | IC50 [4] [µM] | Activity (MCF7 [5]) [%] | Activity (MCF7 [6]) [%] | Activity (MCF7 [7]) [%] | Activity (HCT-116 [8]) [%] | Activity (HCT-116 [9]) [%] | Activity (HCT-116 [10]) [%] | Activity (A-375 [11]) [%] | Activity (A-375 [12]) [%] | Activity (A-375 [13]) [%] | Activity (MCF7 [14]) [%] | Activity (HCT-116 [15]) [%] | Activity (A-375 [16]) [%]
CCOC(=O)Cn1cnc2c(Br)ncnc21 | 14.1 | 23.5 | 13.4 | 15.8 |  |  |  |  |  |  |  |  |  |  |  | 
CCOC(=O)Cn1cnc2ncnc(Br)c21 | 20.2 | 55.7 | 26.7 | 18.3 |  |  |  |  |  |  |  |  |  |  |  | 
CCOC(=O)Cn1cnc2ncnc(Cl)c21 | 49.8 | 68 | 14.5 | 21.4 |  |  |  |  |  |  |  |  |  |  |  | 
CCOC(=O)Cn1cnc2c(Cl)ncnc21 | 35.1 | 5.27 | 18.9 | 21.4 |  |  |  |  |  |  |  |  |  |  |  | 
CCOC(=O)Cn1cc(F)c(=O)[nH]c1=O | 25.2 | 24.6 | 38.4 | 29 |  |  |  |  |  |  |  |  |  |  |  | 
CCOC(=O)Cn1cnc2c(Cl)nc(Cl)nc21 | 3.93 | 6.2 | 1.18 | 3.06 | 28.17 | 15.39 | 54.63 | 45.93 | 36.75 | 17.31 | 58.48 | 28.78 | 12.73 | 20.53 | 20.2 | 35.37
CCOC(=O)Cn1cnc2nc(Cl)nc(Cl)c21 | 5.63 | 6.36 | 4.98 | 5.67 | 34.54 | 18.27 | 47.19 | 33.58 | 37.93 | 28.47 | 70.55 | 20.1 | 9.34 | 24.1 | 17.03 | 27.13
CCOC(=O)Cn1c(=O)[nH]cc(F)c1=O | 30.5 | 22.6 | 50.9 | 25.4 |  |  |  |  |  |  |  |  |  |  |  | 
